This is an account of results in US12134594B2, “Composition and application thereof as antitumor drug” (Guangdong Jianersheng Pharmaceutical Technology Co., Ltd., priority 2018, dated 2024).

The nature of data set [1]: metal and platinum amount in kidney by ICP-MS. It is filed as in vivo, mouse. As for the experimental part: The control group was intraperitoneally (i.p.) administrated with 0.9% normal saline. […] All mice were treated for 3 weeks. The kidney was sliced, weighed and dissolved in 70% HNO3; blood plasma was diluted with 70% HNO3. The sample was heated by a 100° C. hot block until thoroughly evaporated. All solid residues were re-dissolved in 5 mL of 2% HNO3. Platinum was quantified by inductively coupled plasma mass spectrometry (ICP-MS).

Data set [2] has as its system LLC-PK1 cells. The experiment in a line: in vitro MTT cell viability assay, LLC-PK1 cells. Format: cell-based, pig. As for the experimental part: (§1) The cells involved in this example include a human renal proximal tubular cell line HK2 ([…]2190), a pig proximal tubular cell line LLC-PK1 ([…] 101) and a mouse breast cancer cell line 4[…]2539), which were all purchased from American Type Culture Collection. LLC-PK1 cells were cultured in Dulbecco modified Eagle's medium (DMEM), HK2 cells were cultured in DMEM/F12 medium, and 4T1 cells were cultured in RPMI 1640 medium. All cell media were supplemented with 10% FBS, 100 units/ml penicillin and 100 […]. The cell lines were incubated at 37° C. in a 5% CO2 atmosphere and subcultured twice a week. 3.2 In vitro cell viability assay The HK2 cells and the LLC-PK1 cells were treated with trypsin and inoculated in a 100 μL medium in a 96-well plate at a density of 10,000 cells/well. The cells were incubated for 24 h before treatment. To examine the toxicity of the novel compound, the cells were treated with different doses of the novel compound for 24 h. […] The medium was then changed, and the cells were treated with different doses of the novel compound for 48 h. After treatment, cell viability was measured by an MTT assay. 10 μL of a 12 mM MTT (3-(4,5-dimethylthiazol-2-yl)-2,5-diphenyltetrazolium bromide) stock solution was added into each well. After incubation for 4 h at 37° C., the medium was removed; 100 μL of dimethyl sulfoxide (DMSO) was added into each well, and then the plate was incubated for 10 min at 37° C. The plate was shaken in a plate oscillator, and a plate reader (Bio-Tek) was used to measure the absorbance at 570 nm.

A short description of data set [3]: kidney histopathology (HE) in 4T1 mouse model. It is filed as in vivo. The conditions noted are these: 3 weeks. The protocol:
The control group was intraperitoneally (i.p.) administrated with 0.9% normal saline. […] All mice were treated for 3 weeks. Histopathological examination of mouse tissues: histopathological changes of the kidney were examined by a 4 μm-thick deparaffinized section stained with hematoxylin and eosin (HE). To evaluate tubular damages, dilation, necrosis, apoptosis, and cast formation of renal tubules were assessed via 10 different fields of view (Zeiss Axio imager electrofluorescence microscope) at the cortical medullary junction of the kidney.

Data set [4] has as its system HK2 cells. Briefly: platinum content in HK2 cells by ICP-MS. It is filed as cell-based, human. As for the experimental part: The amount of platinum in the cells was determined by an IPC-MS assay.
Platinum concentration was 8.33 ng/10^6 cells. […] Platinum concentration in the HK2 cells dropped by 38.0% to 5.16 ng/10^6 cells as a result.

A short description of data set [5]: blood BUN and creatinine (kidney injury markers) in 4T1 mouse model. Format: in vivo. The conditions noted are these: 3 weeks. As for the experimental part:
The control group was intraperitoneally (i.p.) administrated with 0.9% normal saline. […] All mice were treated for 3 weeks.
An EDTA tube was used to collect whole blood for a complete blood count (CBC) test. Plasma was collected by centrifugation blood collected in a heparin-coated tube. The plasma was used to carry out tests and analyses including CBC and a blood chemical test; plasma BUN and creatinine level were markers of kidney injury.
A 4T1 breast cancer mouse model was used to evaluate the antitumor ability and protective effect of the novel compound. […] When the novel compound was used for intervention, BUN level dropped by 46% to 47.6 mg/dl.

Data set [6] concerns HK2 cells. Briefly: in vitro MTT cell viability assay, HK2 cells. Format: cell-based, human. The protocol:
as §1
On the technique in general: Tetrazolium assays rely on reduction of a dye to a coloured formazan, in cell work by metabolically active cells.

Data set [7] relates to mice. Briefly: acute oral lethal dose (LD50) in mice. Format: in vivo, mouse. From the text:
(§2) According to the technical solutions provided by the present disclosure, the disclosure has the following beneficial effects: • 1. The novel compound in the composition has a high chelating effect on the platinum-based antitumor compound and toxic heavy metals. […] For example, in a test performed in a mouse model with 4T1 breast carcinoma xenografts, the composition combined treatment could better delay tumor growth and inhibit metastasis than administrating the platinum-based antitumor compound alone. • 4. […] Co-treatment using the composition could greatly reduce systemic toxicity in mice and reduce weight loss caused by administrating the platinum-based antitumor compound alone.

For data set [8], the system named is rats. Briefly: acute oral lethal dose (LD50) in rats. It is filed as in vivo, rat.
Description: as §2

Where [9] appears, read: after administration of cisplatin and GMDTC.

A word on the IC50: it is the concentration at which inhibition is half-maximal. As usually defined, the cell viability is a read-out of living cells in per cent, often relative to untreated cells.

Consider `CSCC[C@@H](C(=O)[O-])N(C[C@H](O)[C@@H](O)[C@H](O)[C@H](O)CO)C(=S)[S-].[Na+].[Na+]` [GMDTC, sodium (S)-2-(dithiocarboxylate ((2S,3R,4R,5R)-2,3,4,5,6-pentahydroxyhexyl)amino)-4-(methylthio)butyrate], for which, in data set [1] (mice, ICP-MS, compared with control mice (Table 1 and Table 2)), the “effect on amount and distribution of normal (essential) metals in the body” value was “does not affect”. Moreover, the “impact on viability of LLC-PK1 cells compared with blank control” value in data set [2] (400 μM, 24 h, MTT) was “not significantly”. In addition, the cytotoxicity on co-treatment entry in data set [2] (LLC-PK1 cells, 50 μM cisplatin + novel compound, 24 h (FIG. 3B)) is “reduce cytotoxicity”. The IC50 is roughly 8 mM in data set [2] (LLC-PK1 cells, 24 h, MTT, read-out: IC50 (toxicity, cell viability)) and roughly 8 mM in data set [6] (HK2 cells, 24 h, MTT, read-out: IC50 (toxicity, cell viability)). Further, in data set [3] (mice co-treated with cisplatin and 500 mg/kg novel compound, compared with control group), the kidney histopathology result was “no significant difference”. For the same compound, the results for the “drop of platinum concentration in HK2 cells” value in data set [4] (50 μM cisplatin + 1000 μM novel compound vs cisplatin alone) and in data set [4] (rescue with 1000 μM novel compound after 30 min cisplatin vs no rescue) were 91.5% and 38.0%, respectively. Also, the “platinum concentration in HK2 cells” value is reported as 17.2 ng/10^6 cells in data set [4] (50 μM cisplatin co-administrated with 1000 μM novel compound, 24 h) and 5.16 ng/10^6 cells in data set [4] (cisplatin exposure 30 min, then 1000 μM novel compound intervention, 48 h). The “drop of BUN level” value in data set [5] (cisplatin + 500 mg/kg novel compound vs cisplatin alone) amounted to 46%. Besides, in data set [5] (mice, 5 mg/kg cisplatin twice a week + 500 mg/kg novel compound 2 h after cisplatin), the BUN level amounted to 47.6 mg/dL. In addition, the “impact on viability of HK2 cells compared with blank control” value in data set [6] (1000 μM, 24 h, MTT) was “not significantly”. In addition, the cell viability in data set [6] (HK2 cells pretreated with 300 μM cisplatin 30 min, then GMDTC for 48 h (FIG. 4)) is 60 % of that of the control group; in data set [6] (HK2 cells, 50 μM cisplatin + increasing doses of novel compound, 24 h (FIG. 3A)) it was 80%. Besides, the “acute oral lethal dose (LD50)” value in data set [7] and in data set [8] was “greater than 10,000 mg/kg” in each case.
As to `N.N.[Cl][Pt][Cl]` [cisplatin], in data set [1] (setting [9]), the “Amount in kidney: 27Al” value turned out to be 3.93 µg/g, the “Amount in kidney: 55Mn” value amounted to 0.92 µg/g, the “Amount in kidney: 65Cu” value is 4.13 µg/g and the “Amount in kidney: 66Zn” value came to 24.4 µg/g. Further, the “Amount in kidney: 195Pt” value in data set [1] (setting [9]) turned out to be 9.841 µg/g. In addition, the kidney histopathology entry in data set [3] (mice treated with 5 mg/kg cisplatin twice a week, 5 mg/kg) is “extensive necrosis and degeneration”. Further, in data set [3] (mice treated with 5 mg/kg cisplatin twice a week, listed as Cisplatin, 5 mg/kg), the kidney histopathology result is “extensive necrosis and degeneration of tubule cells”. Moreover, the “platinum concentration in HK2 cells” value in data set [4] (50 μM cisplatin, 24 h) is 202.6 ng/10^6 cells. In data set [4] (cisplatin (300 μM) exposure 30 min, removed, cultured 48 h), the “platinum concentration in HK2 cells” value was 8.33 ng/10^6 cells. In addition, in data set [5] (mice, 5 mg/kg cisplatin i.p. twice a week), the “average BUN level” value was found to be 87.9 mg/dL.
